pKd: −log10 of the molar value.
Molecular target: T1, pmCiC (plasma membrane citrate transporter) (Homo sapiens, UniProt P53007)
T1 construct: gene SLC25A1; His-tagged pmCiC expressed in Sf9 cells, solubilized in dodecylmaltoside and purified by Ni-NTA
Experiment: Trp fluorescence quenching titration of purified protein
Format: binding

T1 sequence (P53007 14-311): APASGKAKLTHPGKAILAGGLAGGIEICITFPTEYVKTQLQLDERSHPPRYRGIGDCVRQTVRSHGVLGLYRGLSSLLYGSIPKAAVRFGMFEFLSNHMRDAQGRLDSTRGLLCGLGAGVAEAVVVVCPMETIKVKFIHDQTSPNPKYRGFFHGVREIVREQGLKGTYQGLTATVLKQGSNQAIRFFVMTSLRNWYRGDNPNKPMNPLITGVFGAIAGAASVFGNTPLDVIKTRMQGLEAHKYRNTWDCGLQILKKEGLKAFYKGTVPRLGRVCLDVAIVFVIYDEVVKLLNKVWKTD

**Q.** `O=C(O)CC(O)(CC(=O)O)C(=O)O` [citrate] was tested. Which pKd did it give?
**A.** 1.80
